Tests used:
NCI-N87 cells = test: Growth inhibitory activity against HER2 expressing cell line NCI-N87; format: cell-based; settings: Homo sapiens, NCI-N87, 72 h; 3 days, CellTiter-Glo 2.0
Method: NCI-N87 cells as a HER2 overexpressing human stomach cancer cell line (American Type Culture Collection, Cat No. ATCC (registered trademark) CRL-5822) were suspended in an RPMI640 medium (Wako Pure Chemical Industries, Ltd.) supplemented with 10% fetal bovine serum. Subsequently, the cell suspension was seeded in each well of a 96-well flat-bottom microplate, and was then cultured in a 5% carbon dioxide gas-containing culture vessel at 37° C. for 1 day. Thereafter, the compound of the present invention was dissolved in DMSO, and the compound was diluted to 1000 times the final concentration in DMSO. The compound in the DMSO solution was diluted with the medium used in the suspension of the cells, and the obtained solution was then added to each well of the culture plate, so that the final concentration of DMSO became 0.1%. Regarding a control well, DMSO was diluted with the medium used in the suspension of the cells, and the obtained solution was then added to each well of the culture plate, so that the final concentration of DMSO became 0.1%. After addition of a drug solution, the obtained mixture was further cultured in the 5% carbon dioxide gas-containing culture vessel at 37° C. for 3 days. After completion of the culture for 3 days in the presence of the compound, the cells were counted using CellTiter-Glo 2.0 (manufactured by Promega) in accordance with the protocols recommended by Promega. The growth inhibition percentage was calculated according to the following equation. […] Growth inhibitory percentage (%)=(C−T)/(C)×100 T: Emission intensity from the well to which the test compound was added C: Emission intensity from the well to which the test compound was not added

NCI-N87-Luc = test: Antitumor effect (in vivo) on direct brain transplantation models of NCI-N87-Luc; set-up: species or system nude mouse (BALB/cAJcl-nu/nu); settings: Days 1-21
Excerpt: In order to confirm the antitumor effects of a test compound on direct brain transplantation models, NCI-N87-Luc, which was obtained by introducing a luciferase gene into NCI-N87 that was a human stomach cancer tumor cell line purchased from American Type Culture Collection, was used.
The NCI-N87-Luc cells were re-suspended in PBS in a concentration of 6.25×10^7 cells/mL.
Using a mouse ear bar, a nude mouse with 6 to 7 weeks old (BALB/cAJcl-nu/nu, CLEA Japan, Inc.) was fixed in a brain stereotaxic apparatus, and the skin on the upper brain portion was disinfected with alcohol cotton and was then excised with a surgical knife.
A microdrill was used to drill a hole in the skull, and then, using a needle, a manipulator, and a syringe pump, 4 μL of the cell suspension was transplanted into the brain at a rate of 0.8 μL/min.
As a reference of the amount of brain tumor, approximately 3 weeks after the transplantation, Total Flux (Photon/sec) was measured in all of the survival cases, using IVIS (PerkinElmer, Inc., model: Lumina II). Based on the obtained results, 6 animals were assigned to each group, using the grouping program of MiSTAT (Ver. 2.00).
(§1) The test compound was orally administered to the mice once a day, every day, for 21 days from the following day of the grouping (Days 1-21).
(§2) For judgment of the presence or absence of effects, the value (Log 10) obtained by logarithmic transformation of the total flux on the judgment date was used. The test compound was administered to the mice at a dose of 25 mg/kg/day in Example 2 and Example 11, whereas it was administered at a dose of 50 mg/kg/day in Example 12.
A graph was prepared with the value obtained by logarithmic transformation (Log 10) of the average total flux of each group as a vertical axis, and with the number of days (Day) after the transplantation as a horizontal axis. The transition of the total flux over time in the drug administration period was observed. […]
(§3) The value obtained by logarithmic transformation (Log 10) of the total flux on Day 22 in each group was analyzed by a Dunnett test or a Student-t test.

[1] = Body weight change in NCI-N87-Luc direct brain transplantation models; format: in vivo, nude mouse (BALB/cAJcl-nu/nu); settings: oral 25 mg/kg/day, Days 1-21, nude mice
Method: as §1, §2, §3

## C=CC(=O)N1C[C@H](n2c(C#CC)c(C(=O)N[C@H](C)c3cc(F)cc(F)c3)c3c(N)ncnc32)C[C@@H]1C [Example 1, 7-(R)-((3R,5S)-1-acryloyl-5-methylpyrrolidin-3-yl)-4-amino-N—((R)-1-(3,5-difluorophenyl)ethyl)-6-(prop-1-yn-1-yl)-7H-pyrrolo[2,3-d]pyrimidine-5-carboxamide]
NCI-N87 cells
  IC50: 10.7 nM

## C=CC(=O)N1C[C@H](n2c(C#CC)c(C(=O)N[C@H](C)c3ccccc3)c3c(N)ncnc32)C[C@@H]1C [Example 2, 7-((3R,5S)-1-acryloyl-5-methylpyrrolidin-3-yl)-4-amino-N—((R)-1-phenylethyl)-6-(prop-1-yn-1-yl)-7H-pyrrolo[2,3-d]pyrimidine-5-carboxamide]
NCI-N87-Luc; oral 25 mg/kg/day once a day
  Log 10 of total flux on Day 22 versus control group: statistically significantly lower
NCI-N87 cells
  IC50: 3 nM
[1]
  body weight reduction of −20% or more: not observed

## C=CC(=O)N1C[C@H](n2c(C#CC)c(C(=O)NC(C)(C)c3ccccc3)c3c(N)ncnc32)C[C@@H]1C [Example 3, 7-((3R,5S)-1-acryloyl-5-methylpyrrolidin-3-yl)-4-amino-N-(2-phenylpropan-2-yl)-6-(prop-1-yn-1-yl)-7H-pyrrolo[2,3-d]pyrimidine-5-carboxamide]
NCI-N87 cells
  IC50: 4.7 nM

## C=CC(=O)N1C[C@H](n2c(C#CC)c(C(=O)N[C@H](CC)c3ccccc3)c3c(N)ncnc32)C[C@@H]1C [Example 4, 7-((3R,5S)-1-acryloyl-5-methylpyrrolidin-3-yl)-4-amino-N—((R)-1-phenylpropyl)-6-(prop-1-yn-1-yl)-7H-pyrrolo[2,3-d]pyrimidine-5-carboxamide]
NCI-N87 cells
  IC50: 5.6 nM

## C=CC(=O)N1C[C@H](n2c(C#CC)c(C(=O)NC(C)(C)c3ccccc3F)c3c(N)ncnc32)C[C@@H]1C [Example 5, 7-((3R,5S)-1-acryloyl-5-methylpyrrolidin-3-yl)-4-amino-N-(2-(2-fluorophenyl)propan-2-yl)-6-(prop-1-yn-1-yl)-7H-pyrrolo[2,3-d]pyrimidine-5-carboxamide]
NCI-N87 cells
  IC50: 7 nM

## C=CC(=O)N1C[C@H](n2c(C#CC)c(C(=O)N[C@H](C)c3cccc(Cl)c3)c3c(N)ncnc32)C[C@@H]1C [Example 6, 7-((3R,5S)-1-acryloyl-5-methylpyrrolidin-3-yl)-4-amino-N—((R)-1-(3-chlorophenyl)ethyl)-6-(prop-1-yn-1-yl)-7H-pyrrolo[2,3-d]pyrimidine-5-carboxamide]
NCI-N87 cells
  IC50: 8.5 nM

## C=CC(=O)N1C[C@H](n2c(C#CC)c(C(=O)N[C@@H](c3ccccc3)C(F)(F)F)c3c(N)ncnc32)C[C@@H]1C [Example 8, 7-((3R,5S)-1-acryloyl-5-methylpyrrolidin-3-yl)-4-amino-6-(prop-1-yn-1-yl)-N—((S)-2,2,2-trifluoro-1-phenylethyl)-7H-pyrrolo[2,3-d]pyrimidine-5-carboxamide]
NCI-N87 cells
  IC50: 9.7 nM

## C=CC(=O)N1C[C@H](n2c(C#CC3CC3)c(C(=O)NC(C)(C)c3ccccc3)c3c(N)ncnc32)C[C@@H]1C [Example 9, 7-((3R,5S)-1-acryloyl-5-methylpyrrolidin-3-yl)-4-amino-6-(cyclopropylethynyl)-N-(2-phenylpropan-2-yl)-7H-pyrrolo[2,3-d]pyrimidine-5-carboxamide]
NCI-N87 cells
  IC50: 6.2 nM

## C=CC(=O)N1C[C@H](n2c(C#CC3CC3)c(C(=O)N[C@H](C)c3cccc(F)c3F)c3c(N)ncnc32)C[C@@H]1C [Example 10, 7-((3R,5S)-1-acryloyl-5-methylpyrrolidin-3-yl)-4-amino-6-(cyclopropylethynyl)-N—((R)-1-(2,3-difluorophenyl)ethyl)-7H-pyrrolo[2,3-d]pyrimidine-5-carboxamide]
NCI-N87 cells
  IC50: 10.5 nM

## C=CC(=O)N1C[C@H](n2c(C#CC3CC3)c(C(=O)N[C@H](C)c3ccccc3)c3c(N)ncnc32)C[C@@H]1C [Example 11, 7-((3R,5S)-1-acryloyl-5-methylpyrrolidin-3-yl)-4-amino-6-(cyclopropylethynyl)-N—((R)-1-phenylethyl)-7H-pyrrolo[2,3-d]pyrimidine-5-carboxamide]
NCI-N87-Luc; oral 25 mg/kg/day once a day
  Log 10 of total flux on Day 22 versus control group: statistically significantly lower
NCI-N87 cells
  IC50: 9.9 nM
[1]
  body weight reduction of −20% or more: not observed

## C=CC(=O)N1C[C@H](n2c(C#CC(C)(C)C)c(C(=O)N[C@H](C)c3ccccc3)c3c(N)ncnc32)C[C@@H]1C [Example 12, 7-((3R,5S)-1-acryloyl-5-methylpyrrolidin-3-yl)-4-amino-6-(3,3-dimethylbut-1-yn-1-yl)-N—((R)-1-phenylethyl)-7H-pyrrolo[2,3-d]pyrimidine-5-carboxamide]
NCI-N87-Luc; oral 50 mg/kg/day once a day
  Log 10 of total flux on Day 22 versus control group: statistically significantly lower
NCI-N87 cells
  IC50: 15 nM

## C=CC(=O)N1C[C@H](n2c(C#CC(C)(C)OC)c(C(=O)N[C@H](C)c3ccccc3)c3c(N)ncnc32)C[C@@H]1C [Example 13, 7-((3R,5S)-1-acryloyl-5-methylpyrrolidin-3-yl)-4-amino-6-(3-methoxy-3-methylbut-1-yn-1-yl)-N—((R)-1-phenylethyl)-7H-pyrrolo[2,3-d]pyrimidine-5-carboxamide]
NCI-N87 cells
  IC50: 11.7 nM

## C=CC(=O)N1C[C@H](n2c(C#CCC)c(C(=O)N[C@H](C)c3ccccc3)c3c(N)ncnc32)C[C@@H]1C [Example 14, 7-((3R,5S)-1-acryloyl-5-methylpyrrolidin-3-yl)-4-amino-6-(but-1-yn-1-yl)-N—((R)-1-phenylethyl)-7H-pyrrolo[2,3-d]pyrimidine-5-carboxamide]
NCI-N87 cells
  IC50: 9.1 nM

## C=CC(=O)N1C[C@H](n2c(C#CC)c(C(=O)N[C@H](C)c3ccccc3)c3c(N)ncnc32)C[C@@H]1CC [Example 16, 7-((3R,5S)-1-acryloyl-5-ethylpyrrolidin-3-yl)-4-amino-N—((R)-1-phenylethyl)-6-(prop-1-yn-1-yl)-7H-pyrrolo[2,3-d]pyrimidine-5-carboxamide]
NCI-N87 cells
  IC50: 0.9 nM

## C=CC(=O)N1C[C@H](n2c(C#CC3CC3)c(C(=O)N[C@H](C)c3ccccc3)c3c(N)ncnc32)C[C@@H]1CC [Example 17, 7-((3R,5S)-1-acryloyl-5-ethylpyrrolidin-3-yl)-4-amino-6-(cyclopropylethynyl)-N—((R)-1-phenylethyl)-7H-pyrrolo[2,3-d]pyrimidine-5-carboxamide]
NCI-N87 cells
  IC50: 2.2 nM

## C=CC(=O)N1C[C@H](n2c(C#CC3CC3)c(C(=O)N[C@H](C)c3ccccc3)c3c(N)ncnc32)C[C@@H]1COC [Example 18, 7-((3R,5R)-1-acryloyl-5-(methoxymethyl)pyrrolidin-3-yl)-4-amino-6-(cyclopropylethynyl)-N—((R)-1-phenylethyl)-7H-pyrrolo[2,3-d]pyrimidine-5-carboxamide]
NCI-N87 cells
  IC50: 2.6 nM

From US11078207B2, “Substituted pyrrolo[2,3-d]pyrimidines as HER2 inhibitors” (TAIHO PHARMACEUTICAL CO., LTD., priority 2019, dated 2021)
